Measured values as given in US11447475B2, “Isoxazole N-linked carbamoyl cyclohexyl acids as LPA antagonists” (BRISTOL-MYERS SQUIBB COMPANY, priority 2017, dated 2022).
Where two headings read alike, the source gives them in different places.

Key:
nerve-injured mice = details: pretreatment; cited from earlier work
IPF patients = details: 26-week clinical trial in IPF patients; cited from earlier work
human LPA1 = biological target: T1, human LPA1 (Homo sapiens, UniProt Q92633); test: LPA1 functional antagonist assay (calcium flux); type: cell-based; details: read-out: hLPA1 IC50
T1 construct: expressed in transfected cells; host or cells: Chinese hamster ovary (CHO) cells
T1 sequence (Q92633 whole entry): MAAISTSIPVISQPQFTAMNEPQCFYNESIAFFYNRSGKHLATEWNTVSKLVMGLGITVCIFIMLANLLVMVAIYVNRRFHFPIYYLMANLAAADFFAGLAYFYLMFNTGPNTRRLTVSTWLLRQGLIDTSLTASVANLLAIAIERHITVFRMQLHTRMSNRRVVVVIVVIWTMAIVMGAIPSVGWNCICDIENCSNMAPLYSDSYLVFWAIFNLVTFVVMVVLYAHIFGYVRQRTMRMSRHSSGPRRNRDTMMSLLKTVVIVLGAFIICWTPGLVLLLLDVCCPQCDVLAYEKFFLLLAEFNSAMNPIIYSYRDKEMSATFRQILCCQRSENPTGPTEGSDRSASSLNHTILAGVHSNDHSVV
Method: The effectiveness of compounds of the present invention as LPA1 inhibitors can be determined in an LPA1 functional antagonist assay as follows:
Chinese hamster ovary cells overexpressing human LPA1 were plated overnight (15,000 cells/well) in poly-D-lysine coated 384-well microplates (Greiner bio-one, Cat #781946) in DMEM/F12 medium (Gibco, Cat #11039). Following overnight culture, cells were loaded with calcium indicator dye (AAT Bioquest Inc, Cat #34601) for 30 minutes at 37° C. The cells were then equilibrated to room temperature for 30 minutes before the assay. Test compounds solubilized in DMSO were transferred to 384 well non-binding surface plates (Corning, Cat #3575) using the Labcyte Echo acoustic dispense and diluted with assay buffer [1×HBSS with calcium/magnesium (Gibco Cat #14025-092), 20 mM HEPES (Gibco Cat #15630-080) and 0.1% fatty acid free BSA (Sigma Cat #A9205)] to a final concentration of 0.5% DMSO. Diluted compounds were added to the cells by FDSS6000 (Hamamatsu) at final concentrations ranging from 0.08 nM to 5 μM. and were then incubated for 20 min at room temperature at which time LPA (Avanti Polar Lipids Cat #857130C) was added at final concentrations of 10 nM to stimulate the cells. […] IC50 values were determined by fitting data to a 4-parameter logistic equation (GraphPad Prism, San Diego Calif.).

[1] = system: human foetal lung fibroblasts; details: induced by BAL obtained from IPF patients; cited from earlier work
UUO mice = UUO mice treated with the antagonist, compared with LPA1 (−/−) mice; cited from earlier work
[2] = system: mouse epithelial renal cell line, MCT; details: LPA treatment of MCT cells, co-treatment with antagonist; cited from earlier work
[3] = system: pancreatic cancer cell lines; details: in response to LPA and peritoneal fluid (ascites) from pancreatic cancer patients; cited from earlier work
[4] = system: highly peritoneal metastatic pancreatic cancer cell line; details: LPA-induced and ascites-induced; cited from earlier work
[5] = CHO cells overexpressing human LPA1, inhibition of calcium flux induced by 10 nM LPA

Row | SMILES | IC50 (human LPA1) | also measured
1 | C[C@@H](N)[C@H]1CC[C@H](C(=O)Nc2ccncc2)CC1 [Example Y-27632] | – | allodynia and hyperalgesia (nerve-injured mice): completely abolished
2 | Cc1noc(-c2ccc(-c3ccc(C4(C(=O)O)CC4)cc3)cc2)c1NC(=O)O[C@H](C)c1ccccc1 [BMS-986020] | – | rate of FVC (forced vital capacity) decline (IPF patients): significantly reduce
3 | Cc1noc(-c2ccc(O[C@H]3CCC[C@H](C(=O)O)C3)cn2)c1CNS(=O)(=O)CCc1ccccc1 [Example 53, (1S,3S)-3-((6-(3-methyl-4-(((2-phenylethyl)sulfonamido)methyl)isoxazol-5-yl) Pyridin-3-yl)oxy)cyclohexane-1-carboxylic Acid] | – | IC50 (human LPA1; [5]): 4 nM
4 | Cc1noc(-c2ccc(O[C@@H]3CCC[C@@H](C(=O)O)C3)cc2)c1CNC(=O)OCCC(C)C (racemic) [Example 24] | 63 nM | –
5 | Cc1noc(-c2ccc(O[C@@H]3CCC[C@@H](C(=O)O)C3)cc2)c1CNC(=O)OCC(C)C (racemic) [Example 22] | 2130 nM | –
6 | Cc1noc(-c2ccc(O[C@@H]3CCC[C@@H](C(=O)O)C3)cc2)c1CNC(=O)OCCC1CC1 [Example 28] | 263 nM | –
7 | CCCCOC(=O)NCc1c(C)noc1-c1ccc(O[C@@H]2CCC[C@@H](C(=O)O)C2)cc1 (racemic) [Example 23] | 319 nM | –
8 | Cc1noc(-c2ccc(O[C@@H]3CCC[C@@H](C(=O)O)C3)cc2)c1CNC(=O)OCC1CCC1 (racemic) [Example 29] | 407 nM | –
9 | Cc1noc(-c2ccc(O[C@H]3CCC[C@H](C(=O)O)C3)cn2)c1CNC(=O)OCCC(C)(C)C [Example 6] | 7 nM | –
10 | Cc1noc(-c2ccc(O[C@@H]3CCC[C@@H](C(=O)O)C3)cc2)c1CNC(=O)O[C@@H](C)c1ccccc1 (mixture of isomers) [Example 16] | 1610 nM | –
11 | Cc1noc(-c2ccc(O[C@@H]3CCC[C@@H](C(=O)O)C3)cc2)c1CNC(=O)OC(C)C1CC1 (mixture of isomers) [Example 27] | 1140 nM | –
12 | Cc1noc(-c2ccc(O[C@H]3CCC[C@H](C(=O)O)C3)cn2)c1CNC(=O)OCC1CC(C)(C)C1 [Example 8] | 5.5 nM | –
13 | Cc1noc(-c2ccc(O[C@@H]3CCC[C@@H](C(=O)O)C3)cc2)c1CNC(=O)OCc1ccccc1F [Example 19] | 152 nM | –
14 | Cc1noc(-c2ccc(O[C@@H]3CCC[C@@H](C(=O)O)C3)cc2)c1CNC(=O)OCc1ccccc1Cl [Example 20] | 244 nM | –
15 | Cc1noc(-c2ccc(O[C@H]3CCCC(C(=O)O)C3)cc2)c1CNC(=O)OCC1CC1C (mixture of isomers) [Example 14] | 97 nM | –
16 | Cc1noc(-c2ccc(O[C@H]3CCC[C@H](C(=O)O)C3)cc2)c1CN(C)C(=O)OCc1ccccc1 [Example 13] | 63 nM | –
17 | Cc1noc(-c2ccc(O[C@@H]3CCC[C@@H](C(=O)O)C3)cc2)c1CNC(=O)OCc1ccc(F)cc1 [Example 18] | 159 nM | –
18 | Cc1noc(-c2ccc(CSCCC(=O)O)cc2)c1NC(=O)OC(C)c1ccccc1Cl (stereo not shown) [Ki16425] | – | chemotaxis of human foetal lung fibroblasts [1]: blocked; development of renal fibrosis (UUO mice): closely resembled the profile of LPA1 (−/−) mice; induction of CTGF expression [2]: almost completely suppressed; in vitro migration [3]: effectively blocked; invasion activity [4]: blocked
19 | Cc1noc(-c2ccc(O[C@H]3CCC[C@H](C(=O)O)C3)cn2)c1CNC(=O)OCc1cccc(F)c1 [Example 3] | – | IC50 (human LPA1; [5]): 5 nM
20 | Cc1noc(-c2ccc(O[C@H]3CCC[C@H](C(=O)O)C3)cc2)c1CNC(=O)OCc1ccc(Cl)cc1 [Example 12] | 2.77 nM | –

Continued, in another order:

Row | IC50 (human LPA1) | SMILES | also measured
21 | 14 nM | CCCCOC(=O)NCc1c(C)noc1-c1ccc(O[C@H]2CCC[C@H](C(=O)O)C2)cn1 [Example 65] | –
22 | 33 nM | CCCCOC(=O)N(C)Cc1c(C)noc1-c1ccc(O[C@H]2CCC[C@H](C(=O)O)C2)cn1 [Example 60] | –
23 | 34 nM | Cc1nc(-c2onc(C)c2CN(C)C(=O)OCC(C)C)ccc1O[C@H]1CCC[C@H](C(=O)O)C1 [Example 40] | –
24 | 275 nM | COCCOC(=O)NCc1c(C)noc1-c1ccc(O[C@H]2CCC[C@H](C(=O)O)C2)c(C)n1 [Example 46] | –
25 | 37 nM | Cc1nc(-c2onc(C)c2CNC(=O)OCC(C)C)ccc1O[C@H]1CCC[C@H](C(=O)O)C1 [Example 39] | –
26 | 4 nM | Cc1noc(-c2ccc(O[C@H]3CCC[C@H](C(=O)O)C3)cn2)c1CNC(=O)OCc1ccccc1 (single isomer, unassigned) [Example 56] | –
27 | 255 nM | Cc1noc(-c2ccc(O[C@H]3CCC[C@H](C(=O)O)C3)cn2)c1CNC(=O)CCc1ccccc1 [Example 54, (1S,3S)-3-((6-(3-methyl-4-((3-phenylpropanamido)methyl)isoxazol-5-yl)pyridin-3-yl)oxy)cyclohexane-1-carboxylic Acid] | –
28 | 84 nM | Cc1noc(-c2ccc(O[C@H]3CCC[C@H](C(=O)O)C3)cc2)c1NC(=O)O[C@H](C)C1CC1 (single isomer, unassigned) [Example 32] | –
29 | 8 nM | CC[C@H](C)COC(=O)NCc1c(C)noc1-c1ccc(O[C@H]2CCC[C@H](C(=O)O)C2)cn1 [Example 61] | –
30 | 16 nM | Cc1noc(-c2ccc(O[C@H]3CCC[C@H](C(=O)O)C3)cn2)c1CNC(=O)OCC1CC1(C)C (stereo partly shown) [Example 63] | –
31 | 30 nM | Cc1nc(-c2onc(C)c2CNC(=O)OC(C)C)ccc1O[C@H]1CCC[C@H](C(=O)O)C1 [Example 47] | –
32 | 111 nM | Cc1noc(-c2cnc(O[C@H]3CCC[C@H](C(=O)O)C3)cn2)c1CNC(=O)OCc1ccccc1 (racemic) [Example 52, (±)-Trans-3-((5-(4-((((benzyloxy)carbonyl)amino)methyl)-3-methyl-isoxazol-5-yl)pyrazin-2-yl)oxy)cyclohexane-1-carboxylic Acid] | –
33 | 77 nM | Cc1noc(-c2ccc(O[C@H]3CCC[C@H](C(=O)O)C3)cn2)c1CNC(=O)OCCC1CC1 [Example 62] | –
34 | 46 nM | CCCCCCOC(=O)NCc1c(C)noc1-c1ccc(O[C@H]2CCC[C@H](C(=O)O)C2)cn1 [Example 36, (1S,3S)-3-((6-(4-((((hexyloxy)carbonyl)amino)methyl)-3-methylisoxazol-5-yl)pyridin-3-yl)oxy)cyclohexane-1-carboxylic Acid] | –
35 | 5 nM | Cc1nc(-c2onc(C)c2CNC(=O)OCc2ccccc2)ccc1O[C@H]1CCC[C@H](C(=O)O)C1 [Example 48] | –
36 | 6 nM | Cc1nc(-c2onc(C)c2CN(C)C(=O)OCc2ccccc2)ccc1O[C@H]1CCC[C@H](C(=O)O)C1 [Example 49, (1S,3S)-3-((6-(4-((((Benzyloxy)carbonyl)(methyl)amino)methyl)-3-methyl-isoxazol-5-yl)-2-methylpyridin-3-yl)oxy)cyclohexanecarboxylic Acid] | –
37 | 23 nM | CCC[C@H](C)OC(=O)NCc1c(C)noc1-c1ccc(O[C@H]2CCC[C@H](C(=O)O)C2)cn1 [Example 55, (1S,3S)-3-((6-(3-methyl-4-((((((S)-pentan-2-yl)oxy)carbonyl)amino) Methyl) Isoxazol-5-yl)pyridin-3-yl)oxy)cyclohexane-1-carboxylic Acid] | –
38 | 63 nM | Cc1noc(-c2ccc(O[C@H]3CCC[C@H](C(=O)O)C3)cn2)c1CNC(=O)OC1CCCC1 [Example 38] | –
39 | 37 nM | CCC[C@@H](C)OC(=O)NCc1c(C)noc1-c1ccc(O[C@H]2CCC[C@H](C(=O)O)C2)cn1 [Example 58] | –
40 | 8 nM | CCCCCOC(=O)NCc1c(C)noc1-c1ccc(O[C@H]2CCC[C@H](C(=O)O)C2)c(C)n1 [Example 43] | –
41 | 84 nM | Cc1noc(-c2ccc(O[C@H]3CCC[C@@H](C(=O)O)C3)cc2)c1NC(=O)O[C@H](C)C1CC1 (racemic) [Example 33] | –
42 | 20 nM | CCCOC(=O)NCc1c(C)noc1-c1ccc(O[C@H]2CCC[C@H](C(=O)O)C2)c(C)n1 [Example 41] | –
